Source: patent US20070203114A1, “7,8,9,10-Tetrahydro-Imidazo [2,1-A] Isochinolines” (priority 2004, published 2007)

test system: pentagastrin-stimulated acid secretion of the perfused rat stomach; assay: Secretion-inhibiting action on the perfused rat stomach (pentagastrin-stimulated acid secretion); type: in vivo; conditions: anesthetized CD rat, female; dose 3 μmol/kg i.d. (intraduodenal); pentagastrin 1 μg/kg i.v. continuous infusion
Description: Testing of the Secretion-Inhibiting Action on the Perfused Rat Stomach
In Table A which follows, the influence of the compounds according to the invention on the pentagastrin-stimulated acid secretion of the perfused rat stomach after intraduodenal administration in vivo is shown.
The abdomen anesthetized rats (CD rat, female, 200-250 g; 1.5 g/kg i.m. urethane) was opened after tracheotomy by a median upper abdominal incision and a PVC catheter was fixed transorally in the esophagus and another via the pylorus such that the ends of the tubes just projected into the gastric lumen. The catheter leading from the pylorus led outward into the right abdominal wall through a side opening.
After thorough rinsing (about 50-100 ml), warm (37° C.) physiological NaCl solution was continuously passed through the stomach (0.5 ml/min, pH 6.8-6.9; Braun-Unita I). The pH (pH meter 632, glass electrode EA 147; φ=5 mm, Metrohm) and, by titration with a freshly prepared 0.01N NaOH solution to pH 7 (Dosimat 665 Metrohm), the secreted HCl were determined in the effluent in each case collected at an interval of 15 minutes.
The gastric secretion was stimulated by continuous infusion of 1 μg/kg (=1.65 ml/h) of i.v. pentagastrin (left femoral vein) about 30 min after the end of the operation (i.e. after determination of 2 preliminary fractions). The substances to be tested were administered intraduodenally in a 2.5 ml/kg liquid volume 60 min after the start of the continuous pentagastrin infusion.
The body temperature of the animals was kept at a constant 37.8-38° C. by infrared irradiation and heat pads (automatic, stepless control by means of a rectal temperature sensor).

| Structure (SMILES) | Inhibition of acid secretion |
| --- | --- |
| Cc1nc2c3c(c(C(=O)N(C)C)cn2c1C)CCC(c1ccccc1)C3 (stereo not shown) [Example 3, 2,3-Dimethyl-9-phenyl-7,8,9,10-tetrahydro-imidazo[2,1-a]isoquinoline-6-carboxylic acid dimethylamide] | >40% |
| Cc1nc2c3c(c(C(=O)N4CCCC4)cn2c1C)CCC(c1ccccc1)C3 (stereo not shown) [Example 4, (2,3-Dimethyl-9-phenyl-7,8,9,10-tetrahydro-imidazo[2,1-a]isoquinolin-6-yl)-pyrrolidin-1-yl-methanone] | >40% |
| COCCNC(=O)c1cn2c(C)c(C)nc2c2c1CCC(c1ccccc1)C2 (stereo not shown) [Example 6, 2,3-Dimethyl-9-phenyl-7,8,9,10-tetrahydro-imidazo[2,1-a]isoquinoline-6-carboxylic acid (2-methoxy-ethyl)-amide] | >40% |
| Cc1nc2c3c(c(C(=O)N4CCOCC4)cn2c1C)CCC(c1ccccc1)C3 (stereo not shown) [Example 7, (2,3-Dimethyl-9-phenyl-7,8,9,10-tetrahydro-imidazo[2,1-a]isoquinolin-6-yl)-morpholin-4-yl-methanone] | >40% |
| CNC(=O)c1cn2c(C)c(C)nc2c2c1CCC(c1ccccc1)C2 (stereo not shown) [Example 8, 2,3-Dimethyl-9-phenyl-7,8,9,10-tetrahydro-imidazo[2,1-a]isoquinoline-6-carboxylic acid methylamide] | >40% |
| COCc1cn2c(C)c(C)nc2c2c1CCC(c1ccccc1)C2 (stereo not shown) [Example 11, 6-Methoxymethyl-2,3-dimethyl-9-phenyl-7,8,9,10-tetrahydro-imidazo[2,1]isoquinoline] | >40% |

test system: not given; assay: not given; conditions: not given

| Structure (SMILES) | melting point |
| --- | --- |
| CCOC(=O)c1cn2c(C)c(C)nc2c2c1CCC(c1ccccc1)C2 (stereo not shown) [Example 1, 2,3-Dimethyl-9-phenyl-7,8,9,10-tetrahydro-imidazo[2,1-a]isoquinoline-6-carboxylic acid ethyl ester] | 165 to 167 °C |
| Cc1nc2c3c(c(C(=O)O)cn2c1C)CCC(c1ccccc1)C3 (stereo not shown) [Example 2, 2,3-Dimethyl-9-phenyl-7,8,9,10-tetrahydro-imidazo[2,1-a]isoquinoline-6-carboxylic acid] | 343 to 345 °C (dec.) |
| CNC(=O)c1cn2c(C)c(C)nc2c2c1CCC(c1ccccc1)C2 (stereo not shown) [Example 8, 2,3-Dimethyl-9-phenyl-7,8,9,10-tetrahydro-imidazo[2,1-a]isoquinoline-6-carboxylic acid methylamide] | 266 to 268 °C |
| Cc1nc2c3c(c(CO)cn2c1C)CCC(c1ccccc1)C3 (stereo not shown) [Example 10, (2,3-Dimethyl-9-phenyl-7,8,9,10-tetrahydro-imidazo[2,1-a]isoquinolin-6-yl)-methanol] | 290 to 292 °C |
